Experimental data as given in patent US8729030B2 (Affymax, Inc., priority 2003, dated 2014).
Bridges are numbered along the chain shown (N, C = ends). Where no end group is shown, it is not given here. [ ]: non-standard residue; d: D form. 1Nal = N[C@@H](Cc1cccc2ccccc12)C(=O)O; Sar = CNCC(=O)O

Legend:
[1] = tested on: human, bone marrow derived CD34+ cells; experiment: C/BFU-e assay (erythroid colony formation); type: cell-based; conditions: Table 6; colonies 90% of maximum relative to EPO control, 14 days
Text: EPO-R signaling stimulates the differentiation of bone marrow stem cells into proliferating red blood cell presursors. This assay measures the ability of test peptides to stimulate the proliferation and differentiation of red blood cell precursors from primary human bone marrow pluripotent stem cells.
For this assay, serial dilutions of test peptide are made in IMDM medium (Gibco) supplemented with 10% FBS (Hyclone). […] The methylcellulose and peptide mixture is then vortexed thoroughly. Aliquots (100,000 cells/mL) of human, bone marrow derived CD34+ cells (Poietics/Cambrex) are thawed. The thawed cells are gently added to 0.1 mL of 1 mg/ml DNAse (Stem Cells) in a 50 mL tube. Next, 40-50 mL IMDM medium is added gently to cells: the medium is added drop by drop along the side of the 50 mL tube for the first 10 mL, and then the remaining volume of medium is slowly dispensed along the side of the tube. The cells are then spun at 900 rpm for 20 min, and the media removed carefully by gentle aspiration. The cells are resuspended in 1 ml of IMDM medium and the cell density per mL is counted on hemacytometer slide (10 μL aliquot of cell suspension on slide, and cell density is the average count×10,000 cells/ml). The cells are then diluted in IMDM medium to a cell density of 15,000 cells/mL. A 100 μL of diluted cells is then added to each 1.5 mL methyl cellulose plus peptide sample (final cell concentration in assay media is 1000 cells/mL), and the mixture is vortexed. Allow the bubbles in the mixture to disappear, and then aspirate 1 mL using blunt-end needle. Add 0.25 mL aspirated mixture from each sample into each of 4 wells of a 24-well plate (Falcon brand). Incubate the plated mixtures at 37° C. under 5% CO2 in a humid incubator for 14 days. Score for the presence of erythroid colonies using a phase microscope (5×-10× objective, final magnification of 100×).
EPO-R signaling stimulates the differentiation of bone marrow stem cells into proliferating red blood cell precursors. […]

[2] = biological target: chimeric receptor comprising the extra-cellular portion of the human EPO receptor to the intra-cellular portion of the human GCSF receptor; experiment: Reporter assay (Baf3/EpoR/GCSFR fos/lux luciferase); type: cell-based; conditions: Table 6; Baf3/EpoR/GCSFR fos/lux cells, 4 h
Text: This assay is based upon a on a murine pre-B-cell line derived reporter cell, Baf3/EpoR/GCSFR fos/lux. This reporter cell line expresses a chimeric receptor comprising the extra-cellular portion of the human EPO receptor to the intra-cellular portion of the human GCSF receptor. This cell line is further transfected with a fos promoter-driven luciferase reporter gene construct. Activation of this chimeric receptor through addition of erythropoietic agent results in the expression of the luciferase reporter gene, and therefore the production of light upon addition of the luciferase substrate luciferin. Thus, the level of EPO-R activation in such cells may be quantitated via measurement of luciferase activity.
The Baf3/EpoR/GCSFR fos/lux cells are cultured in DMEM/F12 medium (Gibco) supplemented with 10% fetal bovine serum (FBS; Hyclone), 10% WEHI-3 supernatant (the supernatant from a culture of WEHI-3 cells, ATCC #TIB-68), and penicillin/streptomycin. […] Following a 5-minute incubation, light emission is measured on a Packard Topcount Luminometer (Packard Instrument Co., Downers Grove, Ill.). Light counts are plotted relative to test peptide concentration and analysed using Graph Pad software. The concentration of test peptide that results in a half-maximal emission of light is recorded as the EC50 [See Table 2: Reporter EC50]. […]

Chain of chimeric receptor comprising the extra-cellular portion of the human EPO receptor to the intra-cellular portion of the human GCSF receptor (P19235 25-250 limits assumed, change not shown): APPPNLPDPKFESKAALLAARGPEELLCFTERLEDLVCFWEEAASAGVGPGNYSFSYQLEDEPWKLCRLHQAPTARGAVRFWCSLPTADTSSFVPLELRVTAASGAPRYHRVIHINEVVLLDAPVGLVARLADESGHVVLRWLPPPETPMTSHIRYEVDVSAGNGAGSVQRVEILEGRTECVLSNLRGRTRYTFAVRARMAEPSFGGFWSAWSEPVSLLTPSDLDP

EC90 [1]: 3 nM | EC50 [2]: 0.195 nM
Substance: peptide dimer of monomers (AcG)GLYACHMGPIT(1-nal)VCQPLR(MeG)K (SEQ ID NO: 2) (Ac-GGLYACHMGPIT[1Nal]VCQPLR[Sar]K; disulfide 6-15 (inferred); not fully specified (residue 1); printed as (AcG)GLYACHMGPIT(1-nal)VCQPLR(MeG)K; also: homodimer, dimer linkage not given here) [Peptide I]
